Results: ChEMBL document CHEMBL4507285, “Data for DCP probe MRL-SYKi” (2021)

Key:
[1] = molecular target: Ribosomal protein S6 kinase beta-1 (Homo sapiens) (UniProt P23443); conditions: Compound concentration 100.0 nM
[2] = molecular target: Death-associated protein kinase 2 (Homo sapiens) (UniProt Q9UIK4); conditions: Compound concentration 100.0 nM
[3] = molecular target: Serine/threonine-protein kinase RIO3 (Homo sapiens) (UniProt O14730); conditions: Compound concentration 100.0 nM
[4] = molecular target: Serine/threonine-protein kinase DCLK1 (Homo sapiens) (UniProt O15075); conditions: Compound concentration 100.0 nM
[5] = molecular target: Mitogen-activated protein kinase kinase kinase kinase 3 (Homo sapiens) (UniProt Q8IVH8); conditions: Compound concentration 100.0 nM
[6] = molecular target: MAP kinase-activated protein kinase 5 (Homo sapiens) (UniProt Q8IW41); conditions: Compound concentration 100.0 nM
[7] = molecular target: Dual specificity mitogen-activated protein kinase kinase 2 (Homo sapiens) (UniProt P36507); conditions: Compound concentration 100.0 nM
[8] = molecular target: Delta-type opioid receptor (Homo sapiens) (UniProt P41143); conditions: Compound concentration 10.0 uM
[9] = molecular target: Cyclin-dependent kinase 9 (Homo sapiens) (UniProt P50750); conditions: Compound concentration 100.0 nM
[10] = molecular target: MAP kinase-interacting serine/threonine-protein kinase 2 (Homo sapiens) (UniProt Q9HBH9); conditions: Compound concentration 100.0 nM
[11] = molecular target: Cyclin-dependent kinase 14 (Homo sapiens) (UniProt O94921); conditions: Compound concentration 100.0 nM
[12] = molecular target: Death-associated protein kinase 1 (Homo sapiens) (UniProt P53355); conditions: Compound concentration 100.0 nM
[13] = molecular target: Serine/threonine-protein kinase Nek9 (Homo sapiens) (UniProt Q8TD19); conditions: Compound concentration 100.0 nM
[14] = molecular target: Wee1-like protein kinase (Homo sapiens) (UniProt P30291); conditions: Compound concentration 100.0 nM
Chain of Wee1-like protein kinase (Homo sapiens) (P30291 whole entry, looked up): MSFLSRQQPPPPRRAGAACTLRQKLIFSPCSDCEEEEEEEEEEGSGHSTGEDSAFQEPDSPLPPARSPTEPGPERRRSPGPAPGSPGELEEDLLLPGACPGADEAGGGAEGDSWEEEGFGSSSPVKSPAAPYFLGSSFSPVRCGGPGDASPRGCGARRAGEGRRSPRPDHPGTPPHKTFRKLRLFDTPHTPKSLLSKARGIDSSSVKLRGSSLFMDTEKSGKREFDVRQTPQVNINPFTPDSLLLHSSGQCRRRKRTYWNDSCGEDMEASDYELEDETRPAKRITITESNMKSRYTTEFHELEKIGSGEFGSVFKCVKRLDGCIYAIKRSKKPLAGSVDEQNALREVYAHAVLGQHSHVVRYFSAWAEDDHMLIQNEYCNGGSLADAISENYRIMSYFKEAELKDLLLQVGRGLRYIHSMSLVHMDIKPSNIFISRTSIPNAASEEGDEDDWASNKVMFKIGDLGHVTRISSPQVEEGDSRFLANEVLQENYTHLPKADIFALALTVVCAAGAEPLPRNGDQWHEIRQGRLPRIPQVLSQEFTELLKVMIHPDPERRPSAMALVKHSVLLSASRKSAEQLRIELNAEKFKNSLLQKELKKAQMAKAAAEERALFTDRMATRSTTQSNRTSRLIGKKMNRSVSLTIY

[15] = molecular target: Ribosomal protein S6 kinase alpha-3 (Homo sapiens) (UniProt P51812); conditions: Compound concentration 100.0 nM
[16] = molecular target: Mitogen-activated protein kinase 4 (Homo sapiens) (UniProt P31152); conditions: Compound concentration 100.0 nM
[17] = molecular target: Phosphatidylinositol 4,5-bisphosphate 3-kinase catalytic subunit beta isoform (Homo sapiens) (UniProt P42338); conditions: Compound concentration 100.0 nM
[18] = molecular target: Dual specificity tyrosine-phosphorylation-regulated kinase 2 (Homo sapiens) (UniProt Q92630); conditions: Compound concentration 100.0 nM
Chain of Dual specificity tyrosine-phosphorylation-regulated kinase 2 (Homo sapiens) (Q92630 whole entry): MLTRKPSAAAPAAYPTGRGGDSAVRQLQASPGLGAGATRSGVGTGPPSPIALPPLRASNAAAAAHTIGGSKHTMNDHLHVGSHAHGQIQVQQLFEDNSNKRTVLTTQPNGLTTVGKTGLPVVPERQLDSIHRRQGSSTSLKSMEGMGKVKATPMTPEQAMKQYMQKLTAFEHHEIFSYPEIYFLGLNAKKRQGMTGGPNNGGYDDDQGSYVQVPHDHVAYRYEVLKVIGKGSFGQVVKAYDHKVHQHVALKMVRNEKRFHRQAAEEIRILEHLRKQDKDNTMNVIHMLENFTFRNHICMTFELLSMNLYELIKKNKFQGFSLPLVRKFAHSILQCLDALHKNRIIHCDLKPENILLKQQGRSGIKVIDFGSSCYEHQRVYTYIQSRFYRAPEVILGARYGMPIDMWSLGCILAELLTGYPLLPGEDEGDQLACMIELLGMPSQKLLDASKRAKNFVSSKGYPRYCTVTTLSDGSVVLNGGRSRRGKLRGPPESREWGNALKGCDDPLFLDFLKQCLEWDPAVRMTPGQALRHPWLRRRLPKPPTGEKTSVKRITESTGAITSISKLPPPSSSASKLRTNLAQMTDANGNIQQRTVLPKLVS

[19] = molecular target: Megakaryocyte-associated tyrosine-protein kinase (Homo sapiens) (UniProt P42679); conditions: Compound concentration 100.0 nM
[20] = molecular target: Serine/threonine-protein kinase NLK (Homo sapiens) (UniProt Q9UBE8); conditions: Compound concentration 100.0 nM
Chain of Serine/threonine-protein kinase NLK (Homo sapiens) (Q9UBE8 whole entry, the tested form may be a part): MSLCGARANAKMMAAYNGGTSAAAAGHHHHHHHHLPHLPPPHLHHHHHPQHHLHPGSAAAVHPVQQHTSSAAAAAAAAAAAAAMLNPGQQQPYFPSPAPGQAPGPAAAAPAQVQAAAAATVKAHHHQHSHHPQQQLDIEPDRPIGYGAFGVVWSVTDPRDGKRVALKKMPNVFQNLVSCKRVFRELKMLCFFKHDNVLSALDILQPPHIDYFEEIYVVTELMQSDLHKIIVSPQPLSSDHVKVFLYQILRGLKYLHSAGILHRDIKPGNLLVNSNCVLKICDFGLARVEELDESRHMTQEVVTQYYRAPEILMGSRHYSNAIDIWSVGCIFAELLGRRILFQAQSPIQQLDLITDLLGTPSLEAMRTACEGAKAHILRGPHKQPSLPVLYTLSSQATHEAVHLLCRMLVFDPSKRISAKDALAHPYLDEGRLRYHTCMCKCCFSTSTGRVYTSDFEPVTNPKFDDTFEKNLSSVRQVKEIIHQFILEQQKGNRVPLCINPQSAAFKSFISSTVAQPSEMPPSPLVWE

[21] = molecular target: Ankyrin repeat and protein kinase domain-containing protein 1 (Homo sapiens) (UniProt Q8NFD2); conditions: Compound concentration 100.0 nM
[22] = tested on: eIF-2-alpha kinase GCN2 (Homo sapiens), Q9P2K8 [S808G]; conditions: Compound concentration 100.0 nM
[23] = molecular target: Myotonin-protein kinase (Homo sapiens) (UniProt Q09013); conditions: Compound concentration 100.0 nM
[24] = molecular target: Fibroblast growth factor receptor 2 (Homo sapiens) (UniProt P21802); conditions: Compound concentration 100.0 nM
[25] = molecular target: Protein-tyrosine kinase 6 (Homo sapiens) (UniProt Q13882); conditions: Compound concentration 100.0 nM
[26] = molecular target: Wee1-like protein kinase 2 (Homo sapiens) (UniProt P0C1S8); conditions: Compound concentration 100.0 nM
[27] = molecular target: Ephrin type-A receptor 2 (Homo sapiens) (UniProt P29317); conditions: Compound concentration 100.0 nM
Chain of Ephrin type-A receptor 2 (Homo sapiens) (P29317 whole entry): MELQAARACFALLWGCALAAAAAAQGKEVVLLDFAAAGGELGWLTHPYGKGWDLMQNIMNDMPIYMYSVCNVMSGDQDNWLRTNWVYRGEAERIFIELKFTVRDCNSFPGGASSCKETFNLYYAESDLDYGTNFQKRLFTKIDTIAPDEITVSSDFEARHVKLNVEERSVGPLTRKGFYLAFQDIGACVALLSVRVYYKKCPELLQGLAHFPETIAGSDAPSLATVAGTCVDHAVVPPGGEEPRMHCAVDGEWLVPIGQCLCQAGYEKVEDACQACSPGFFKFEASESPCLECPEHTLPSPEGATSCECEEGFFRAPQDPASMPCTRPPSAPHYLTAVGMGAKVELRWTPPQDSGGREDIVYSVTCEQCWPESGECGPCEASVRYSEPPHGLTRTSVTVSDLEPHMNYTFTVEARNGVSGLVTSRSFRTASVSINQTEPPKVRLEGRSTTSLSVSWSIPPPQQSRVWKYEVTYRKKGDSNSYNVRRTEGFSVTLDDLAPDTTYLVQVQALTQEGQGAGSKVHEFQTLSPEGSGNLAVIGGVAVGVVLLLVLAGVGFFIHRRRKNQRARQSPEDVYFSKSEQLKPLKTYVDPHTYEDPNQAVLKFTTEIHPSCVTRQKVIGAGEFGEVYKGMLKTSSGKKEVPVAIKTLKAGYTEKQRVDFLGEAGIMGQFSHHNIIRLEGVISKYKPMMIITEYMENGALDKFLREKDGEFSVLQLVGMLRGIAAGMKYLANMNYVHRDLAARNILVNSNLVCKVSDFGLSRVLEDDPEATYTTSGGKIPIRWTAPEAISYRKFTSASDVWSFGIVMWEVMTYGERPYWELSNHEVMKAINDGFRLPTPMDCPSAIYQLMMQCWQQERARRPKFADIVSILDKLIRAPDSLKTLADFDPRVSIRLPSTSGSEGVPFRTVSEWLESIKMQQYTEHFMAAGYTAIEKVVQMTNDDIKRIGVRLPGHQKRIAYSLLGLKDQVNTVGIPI

[28] = molecular target: MAP kinase-activated protein kinase 2 (Homo sapiens) (UniProt P49137); conditions: Compound concentration 100.0 nM
Chain of MAP kinase-activated protein kinase 2 (Homo sapiens) (P49137 whole entry, looked up): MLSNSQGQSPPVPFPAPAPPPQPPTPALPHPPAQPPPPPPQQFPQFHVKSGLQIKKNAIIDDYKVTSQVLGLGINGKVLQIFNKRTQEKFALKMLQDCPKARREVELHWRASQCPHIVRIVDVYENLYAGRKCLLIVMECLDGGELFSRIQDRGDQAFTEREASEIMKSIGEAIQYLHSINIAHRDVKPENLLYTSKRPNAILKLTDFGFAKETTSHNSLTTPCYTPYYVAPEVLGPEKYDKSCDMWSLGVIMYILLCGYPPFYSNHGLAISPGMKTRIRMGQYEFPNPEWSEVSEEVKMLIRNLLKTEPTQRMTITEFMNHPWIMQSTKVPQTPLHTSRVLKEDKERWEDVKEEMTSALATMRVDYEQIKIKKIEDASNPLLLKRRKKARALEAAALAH

[29] = molecular target: Serine/threonine-protein kinase ULK2 (Homo sapiens) (UniProt Q8IYT8); conditions: Compound concentration 100.0 nM
[30] = molecular target: Ribosomal protein S6 kinase alpha-6 (Homo sapiens) (UniProt Q9UK32); conditions: Compound concentration 100.0 nM
Chain of Ribosomal protein S6 kinase alpha-6 (Homo sapiens) (Q9UK32 whole entry): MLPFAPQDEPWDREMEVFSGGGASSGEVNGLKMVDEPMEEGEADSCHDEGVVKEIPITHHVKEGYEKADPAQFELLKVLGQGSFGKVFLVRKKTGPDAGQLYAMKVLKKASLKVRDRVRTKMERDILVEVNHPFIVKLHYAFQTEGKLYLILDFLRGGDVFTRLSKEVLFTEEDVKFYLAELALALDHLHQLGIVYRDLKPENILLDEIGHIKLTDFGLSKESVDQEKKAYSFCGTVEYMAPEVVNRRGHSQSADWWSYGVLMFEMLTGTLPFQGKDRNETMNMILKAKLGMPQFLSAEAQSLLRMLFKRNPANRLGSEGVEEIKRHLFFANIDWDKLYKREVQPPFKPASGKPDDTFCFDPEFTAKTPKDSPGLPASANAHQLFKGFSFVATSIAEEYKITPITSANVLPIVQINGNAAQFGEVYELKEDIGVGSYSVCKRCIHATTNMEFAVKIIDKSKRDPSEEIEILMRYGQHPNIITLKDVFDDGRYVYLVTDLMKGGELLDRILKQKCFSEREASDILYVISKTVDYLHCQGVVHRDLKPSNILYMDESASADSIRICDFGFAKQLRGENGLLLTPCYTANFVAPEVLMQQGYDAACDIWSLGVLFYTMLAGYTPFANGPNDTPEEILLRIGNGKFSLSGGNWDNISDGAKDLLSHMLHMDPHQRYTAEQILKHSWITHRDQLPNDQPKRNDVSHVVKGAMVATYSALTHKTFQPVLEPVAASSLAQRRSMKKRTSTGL

[31] = molecular target: SNF-related serine/threonine-protein kinase (Homo sapiens) (UniProt Q9NRH2); conditions: Compound concentration 100.0 nM
[32] = molecular target: 5-hydroxytryptamine receptor 1B (Homo sapiens) (UniProt P28222); conditions: Compound concentration 10.0 uM
Chain of 5-hydroxytryptamine receptor 1B (Homo sapiens) (P28222 whole entry): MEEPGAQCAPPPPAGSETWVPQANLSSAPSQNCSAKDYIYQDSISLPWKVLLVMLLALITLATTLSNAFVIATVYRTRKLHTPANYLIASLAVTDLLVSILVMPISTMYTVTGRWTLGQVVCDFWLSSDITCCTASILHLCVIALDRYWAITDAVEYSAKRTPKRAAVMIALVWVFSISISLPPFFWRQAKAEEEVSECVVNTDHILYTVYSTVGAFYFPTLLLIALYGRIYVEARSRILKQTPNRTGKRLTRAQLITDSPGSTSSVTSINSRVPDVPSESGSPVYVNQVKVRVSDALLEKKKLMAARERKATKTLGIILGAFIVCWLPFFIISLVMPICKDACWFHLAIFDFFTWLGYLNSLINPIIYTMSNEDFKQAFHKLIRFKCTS

[33] = tested on: Epidermal growth factor receptor (Homo sapiens), P00533 [L858R,T790M]; conditions: Compound concentration 100.0 nM
[34] = molecular target: Epithelial discoidin domain-containing receptor 1 (Homo sapiens) (UniProt Q08345); conditions: Compound concentration 100.0 nM
[35] = tested on: Epidermal growth factor receptor (Homo sapiens), P00533 [UNDEFINED MUTATION]; conditions: Compound concentration 100.0 nM
[36] = molecular target: ALK tyrosine kinase receptor (Homo sapiens) (UniProt Q9UM73); conditions: Compound concentration 100.0 nM
[37] = molecular target: Phosphatidylinositol 4-phosphate 5-kinase type-1 alpha (Homo sapiens) (UniProt Q99755); conditions: Compound concentration 100.0 nM
[38] = molecular target: 5-hydroxytryptamine receptor 3A (Homo sapiens) (UniProt P46098); conditions: Compound concentration 10.0 uM
Chain of 5-hydroxytryptamine receptor 3A (Homo sapiens) (P46098 whole entry): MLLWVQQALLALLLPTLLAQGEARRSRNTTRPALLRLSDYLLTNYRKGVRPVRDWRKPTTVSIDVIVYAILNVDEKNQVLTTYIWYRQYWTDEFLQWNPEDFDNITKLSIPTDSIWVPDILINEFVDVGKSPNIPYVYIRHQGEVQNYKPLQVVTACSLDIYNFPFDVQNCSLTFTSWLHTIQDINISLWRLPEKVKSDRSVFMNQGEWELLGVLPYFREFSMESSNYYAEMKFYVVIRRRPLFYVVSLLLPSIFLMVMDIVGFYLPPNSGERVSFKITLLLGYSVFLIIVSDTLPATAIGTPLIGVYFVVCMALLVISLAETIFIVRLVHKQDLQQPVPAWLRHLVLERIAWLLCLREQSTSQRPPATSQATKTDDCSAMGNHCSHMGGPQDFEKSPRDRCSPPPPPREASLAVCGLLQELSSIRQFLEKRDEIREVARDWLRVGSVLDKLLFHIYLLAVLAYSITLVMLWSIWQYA

[39] = molecular target: Cyclin-dependent kinase 19 (Homo sapiens) (UniProt Q9BWU1); conditions: Compound concentration 100.0 nM
[40] = molecular target: Serine/threonine-protein kinase 35 (Homo sapiens) (UniProt Q8TDR2); conditions: Compound concentration 100.0 nM
[41] = molecular target: Serine/threonine-protein kinase 10 (Homo sapiens) (UniProt O94804); conditions: Compound concentration 100.0 nM
[42] = molecular target: Tyrosine-protein kinase ABL2 (Homo sapiens) (UniProt P42684); conditions: Compound concentration 100.0 nM
[43] = molecular target: Histamine H3 receptor (Homo sapiens) (UniProt Q9Y5N1); conditions: Compound concentration 10.0 uM
[44] = molecular target: Serine/threonine-protein kinase haspin (Homo sapiens) (UniProt Q8TF76); conditions: Compound concentration 100.0 nM
[45] = molecular target: Ephrin type-A receptor 7 (Homo sapiens) (UniProt Q15375); conditions: Compound concentration 100.0 nM

`Cc1ccc(-c2cnc([C@@]3(O)CC[C@H](C(=O)O)C(C)(C)C3)s2)cc1Nc1cccc(C(F)(F)F)n1` [MRL-SYKi-NC] showed a residual activity [1] of 85.9%, a residual activity [2] of 84.8% and a residual activity [3] of 100%. For the same compound, the residual activity [4] was 91.3%, the residual activity [5] was 100% and the residual activity [6] was 97.7%. The residual activity [7] was 87%, the inhibition [8] was 25.1% and the residual activity [9] was 100%. It also gave a residual activity [10] of 100%, a residual activity [11] of 100% and a residual activity [12] of 100%. The residual activity [13] was 80.3%, the residual activity [14] was 81.4% and the residual activity [15] was 93%. The residual activity [16] was 100%, the residual activity [17] was 77.1% and the residual activity [18] was 82.4%. It also gave a residual activity [19] of 74.6%, a residual activity [20] of 100% and a residual activity [21] of 93.5%. For the same compound, the residual activity [22] was 100%, the residual activity [23] was 93.7% and the residual activity [24] was 100%. It also gave a residual activity [25] of 100%, a residual activity [26] of 89.5% and a residual activity [27] of 100%. It also gave a residual activity [28] of 97.9%, a residual activity [29] of 76% and a residual activity [30] of 100%. The residual activity [31] was 90.1%, the inhibition [32] was 20.2% and the residual activity [33] was 100%. For the same compound, the residual activity [34] was 100%, the residual activity [35] was 100% and the residual activity [36] was 100%. The residual activity [37] was 93%, the inhibition [38] was -1.96% and the residual activity [39] was 95.3%. For the same compound, the residual activity [40] was 97.3%, the residual activity [41] was 74.5% and the residual activity [42] was 98.3%. The inhibition [43] was 46.4%, the residual activity [44] was 47% and the residual activity [45] was 94.2%.
`Cc1cc(Nc2nccc(C)n2)cc(-c2cnc([C@@]3(O)CC[C@H](C(=O)O)C(C)(C)C3)s2)c1` [MRL-SYKi] was tested, and the residual activity [1] was 78.2%, the residual activity [2] was 100% and the residual activity [3] was 77.2%. It also gave a residual activity [4] of 64.1%, a residual activity [5] of 100% and a residual activity [6] of 100%. It also gave a residual activity [7] of 89.4%, an inhibition [8] of 12.8% and a residual activity [9] of 100%. It also gave a residual activity [10] of 74.7%, a residual activity [11] of 100% and a residual activity [12] of 100%. The residual activity [13] was 92.8%, the residual activity [14] was 93.1% and the residual activity [15] was 87.6%. The residual activity [16] was 100%, the residual activity [17] was 100% and the residual activity [18] was 100%. The residual activity [19] was 100%, the residual activity [20] was 73% and the residual activity [21] was 100%. The residual activity [22] was 56.2%, the residual activity [23] was 99.8% and the residual activity [24] was 67.3%. For the same compound, the residual activity [25] was 100%, the residual activity [26] was 100% and the residual activity [27] was 100%. The residual activity [28] was 100%, the residual activity [29] was 100% and the residual activity [30] was 77.2%. For the same compound, the residual activity [31] was 100%, the inhibition [32] was 11.6% and the residual activity [33] was 46.2%. For the same compound, the residual activity [34] was 84.5%, the residual activity [35] was 74% and the residual activity [36] was 93.8%. It also gave a residual activity [37] of 100%, an inhibition [38] of -3.85% and a residual activity [39] of 85%. The residual activity [40] was 100%, the residual activity [41] was 100% and the residual activity [42] was 85.8%. For the same compound, the inhibition [43] was 50.4%, the residual activity [44] was 90.8% and the residual activity [45] was 81.3%.
